Assay results reported in patent US8211874B2, “Inhibition of thrombin generation” (Galderma Laboratories Inc., priority 2005, dated 2012).

Key:
[1] = Plasma concentration in humans after daily dose; format: in vivo; settings: dose of about 10 to about 20 mg/day
plasma PT = experiment: Prothrombin time (PT) in plasma; format: biochemical, human; settings: COL-3 10.72, 21.44 and 536 μM, FIG. 2
Protocol: (§1) COL-3 was dissolved in DMSO (dimethyl sulfoxide, Sigma, St. Louis, Mo.). Blood was drawn from 5 consented healthy volunteers into 3.2% citrate tubes.
(§2) Maximum amplitude (MA), angle, and R-value were recorded. For prothrombin time (PT) and activated partial thromboplastin time (aPTT) blood samples were centrifuged for 15 min at 3000× g to obtain plasma and COL-3 was added to a final concentration of 10.72, 21.44 and 536 μM. Testing was done using Start 4instrument (Diagnostic Stago, Parsippainy, N.J.) along with appropriate standards and controls.

platelets = experiment: Platelet aggregation (light transmittance aggregometer, ADP and collagen activators); format: cell-based, human; settings: 200,000 platelets/μl; ADP and collagen (20 μM) as activators
Protocol: as §1
For platelet aggregation studies platelet rich and platelet poor plasma was separated by centrifugation. All platelet studies were performed in a total volume of 500 μl with 200,000 platelets/μl. Platelet aggregation was quantitated by measuring changes in light transmittance in dual channel aggregometer (Chronolog Corp. Havertown, Pa.) using ADP (adenosine di-phosphate) and collagen (final concentration 20 μM) as activators.

plasma aPTT = experiment: Activated partial thromboplastin time (aPTT) in plasma; format: biochemical, human; settings: COL-3 10.72, 21.44 and 536 μM, FIG. 2
Protocol: as §1, §2

whole blood = experiment: TEG (Thromboelastograph) of whole blood activated with tissue factor; format: cell-based, human; settings: COL-3 10.72 or 21.44 μM, TF 4 pM
Protocol: as §1
For TEG (Thromboelastograph, Haemoscope Corp, Skokie Ill.) whole blood samples (0.34 ml) were added to cups along with 10 μl of saline (control), DMSO, or COL-3 (final concentration of 10.72 or 21.44 μM). After addition of calcium chloride (20 μl of 0.2 M), samples were activated with TF (tissue factor) (4 pM) and TEGs (thrombelastogram) were run according to manufacturers directions.
as §2

thrombin generation = experiment: Thrombin generation in platelet poor plasma (Thrombinoscope, Innovin or Actin trigger); format: biochemical, human; settings: COL-3 final concentration 10.72, 21.44 and 536 μl, Innovin 5 pM or Actin 1:20 trigger, FIGS. 1A and 1B
Protocol: as §1
For thrombin generation experiments 80 μl of platelet poor plasma containing either saline, DMSO or COL-3 at final concentration of […] and thrombin generation trigger (Innovin 5 pM, or Actin 1:20 dilution, Dade Behring, Marburg, Germany) were added to 96 well microtiter plate (Microfluor-2, Thermolabsystems, Franklin Mass.) followed by 20 μl of calcium-substrate (Z-GGR-AMC, Bachem, Switzerland) buffer. The reaction was monitored by measuring increase in fluorescence at 390 nm excitation and 460 nm emission wavelengths and the acquired data was processed for lag time and peak thrombin generation parameters using Thrombinoscope software (Thrombinoscope BV, Maastricht, the Netherlands). The data were imported into excel file and the % decrease in thrombin generation due to COL-3 was calculated. Data were analyzed using repeated ANOVA p<0.05 was considered significant.

NC(=O)C1=C(O)C[C@@H]2C[C@@H]3Cc4cccc(O)c4C(=O)C3=C(O)[C@]2(O)C1=O [COL-3, 6-demethyl-6-deoxy-4-de(dimethylamino)tetracycline]
plasma concentrations in humans [1]: about 1.0 μg/ml | PT values (plasma PT): increased only at the highest concentration | platelet aggregation (platelets): no effect | aPTT values (plasma aPTT): increased only at the highest concentration | TEG parameters (maximum amplitude (MA), angle, R-value) (whole blood): no effect | thrombin generation (thrombin generation): dose dependent reduction
